Assay results as given in publication PMC6585620 (Clinical Pharmacology and Therapeutics, 2018).
Read-outs that look alike come from different tables or passages of the source.

Tests used:
[1] = tablet 300 mg bid, cited from earlier work
CYP3A4 [2] = target: T1, CYP3A4 (Homo sapiens, UniProt P08684); assay: In vitro CYP3A4 time-dependent inhibition; type: in vitro ADME; conditions: measured data
P‐glycoprotein (P‐gp) [3] = target: T2, P‐glycoprotein (P‐gp) (Homo sapiens, UniProt P08183); assay: In vitro P-gp inhibition; type: in vitro ADME
T2 sequence (P08183 whole entry): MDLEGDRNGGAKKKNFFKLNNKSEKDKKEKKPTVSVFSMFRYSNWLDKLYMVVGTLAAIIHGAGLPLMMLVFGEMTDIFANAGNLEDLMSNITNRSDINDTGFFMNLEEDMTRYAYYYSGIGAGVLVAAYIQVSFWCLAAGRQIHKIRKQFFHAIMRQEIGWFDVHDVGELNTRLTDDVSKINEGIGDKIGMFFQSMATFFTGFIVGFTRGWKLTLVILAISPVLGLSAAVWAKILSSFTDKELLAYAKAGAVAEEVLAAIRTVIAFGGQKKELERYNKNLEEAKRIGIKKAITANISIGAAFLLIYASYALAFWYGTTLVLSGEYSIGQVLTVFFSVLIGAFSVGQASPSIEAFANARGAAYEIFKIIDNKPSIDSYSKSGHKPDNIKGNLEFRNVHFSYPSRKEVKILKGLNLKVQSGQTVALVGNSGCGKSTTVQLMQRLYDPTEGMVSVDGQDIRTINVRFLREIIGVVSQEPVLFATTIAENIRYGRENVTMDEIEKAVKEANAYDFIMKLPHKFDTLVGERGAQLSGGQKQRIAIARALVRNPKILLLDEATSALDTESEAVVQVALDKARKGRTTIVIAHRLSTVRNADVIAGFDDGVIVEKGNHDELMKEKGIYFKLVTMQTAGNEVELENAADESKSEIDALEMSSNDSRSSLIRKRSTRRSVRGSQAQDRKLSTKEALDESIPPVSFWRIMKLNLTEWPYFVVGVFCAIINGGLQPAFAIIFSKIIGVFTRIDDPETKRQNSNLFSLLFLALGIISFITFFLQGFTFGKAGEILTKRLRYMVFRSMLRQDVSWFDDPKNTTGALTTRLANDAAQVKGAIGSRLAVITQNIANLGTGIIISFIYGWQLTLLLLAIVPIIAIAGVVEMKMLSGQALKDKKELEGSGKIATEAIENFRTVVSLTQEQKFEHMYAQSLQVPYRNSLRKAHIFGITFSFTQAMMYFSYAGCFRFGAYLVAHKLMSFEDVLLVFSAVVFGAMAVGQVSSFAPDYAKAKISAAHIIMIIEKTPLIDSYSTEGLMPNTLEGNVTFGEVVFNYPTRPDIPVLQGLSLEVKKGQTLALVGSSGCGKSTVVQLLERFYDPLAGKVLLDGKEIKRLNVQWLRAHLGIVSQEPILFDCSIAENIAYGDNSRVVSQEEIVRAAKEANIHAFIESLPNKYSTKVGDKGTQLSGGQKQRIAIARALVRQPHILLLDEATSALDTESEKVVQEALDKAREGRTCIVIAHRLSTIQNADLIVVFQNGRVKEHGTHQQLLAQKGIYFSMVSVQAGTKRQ

[4] = Blood-to-plasma ratio and plasma unbound fraction; type: in vitro ADME
[5] = cited from earlier work; for Increase in AUC vs normal renal function / Increase in Cmax vs normal renal function: single oral 300 mg tablet
[6] = Mass balance ADME study with [14C]-olaparib; type: in vivo, human; conditions: Figure S1
UGT1A1 [7] = target: T3, UGT1A1 (Homo sapiens, UniProt P22309); assay: In vitro UGT1A1 inhibition; type: in vitro ADME; conditions: UGT1A1 (Ki=IC50/2), measured data
T3 sequence (P22309 26-533): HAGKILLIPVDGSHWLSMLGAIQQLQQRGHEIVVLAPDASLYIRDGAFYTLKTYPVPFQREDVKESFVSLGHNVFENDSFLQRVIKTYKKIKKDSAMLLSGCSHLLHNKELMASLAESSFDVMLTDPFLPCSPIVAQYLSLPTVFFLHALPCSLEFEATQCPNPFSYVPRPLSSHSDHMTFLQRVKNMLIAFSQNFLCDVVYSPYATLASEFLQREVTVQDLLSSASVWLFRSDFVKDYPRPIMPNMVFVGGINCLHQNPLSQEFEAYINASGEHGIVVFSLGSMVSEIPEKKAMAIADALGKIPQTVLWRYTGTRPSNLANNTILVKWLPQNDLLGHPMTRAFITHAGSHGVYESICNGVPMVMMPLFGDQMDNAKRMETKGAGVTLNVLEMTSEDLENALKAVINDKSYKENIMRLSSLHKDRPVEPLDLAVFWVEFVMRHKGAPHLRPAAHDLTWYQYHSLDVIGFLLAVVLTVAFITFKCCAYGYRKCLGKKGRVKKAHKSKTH

[8] = observed, cited from earlier work
CYP3A4 [9] = assay: In vitro CYP3A4 induction; type: in vitro ADME, human
[10] = PBPK model parameters estimated or predicted in Simcyp; parameters: species or system human; conditions: for CYP3A CLint: retrograde approach
[11] = Physicochemical properties; conditions: PBPK input
UGT1A1 [12] = target: T3, UGT1A1; conditions: read-out: UGT1A1 inhibition IC50; in vitro; cited from earlier work
[13] = PKPD exposure-response analysis of SOLO2; type: in vivo, human; conditions: for a 50% increase in exposure to olaparib
P‐glycoprotein (P‐gp) [14] = target: T2, P‐glycoprotein (P‐gp); conditions: read-out: P‐gp inhibition IC50; in vitro; cited from earlier work
CYP3A4 [15] = target: T1, CYP3A4; assay: In vitro CYP3A4 reversible inhibition; type: in vitro ADME
[16] = adults SOLO2 (observed), ref SOLO2 (NCT01874353)
[17] = capsule 400 mg single dose, arithmetic mean (min–max)
[18] = tablet 300 mg bid multiple dose
[19] = capsule model, estimated based on clinical data

T1 sequence (P08684 whole entry): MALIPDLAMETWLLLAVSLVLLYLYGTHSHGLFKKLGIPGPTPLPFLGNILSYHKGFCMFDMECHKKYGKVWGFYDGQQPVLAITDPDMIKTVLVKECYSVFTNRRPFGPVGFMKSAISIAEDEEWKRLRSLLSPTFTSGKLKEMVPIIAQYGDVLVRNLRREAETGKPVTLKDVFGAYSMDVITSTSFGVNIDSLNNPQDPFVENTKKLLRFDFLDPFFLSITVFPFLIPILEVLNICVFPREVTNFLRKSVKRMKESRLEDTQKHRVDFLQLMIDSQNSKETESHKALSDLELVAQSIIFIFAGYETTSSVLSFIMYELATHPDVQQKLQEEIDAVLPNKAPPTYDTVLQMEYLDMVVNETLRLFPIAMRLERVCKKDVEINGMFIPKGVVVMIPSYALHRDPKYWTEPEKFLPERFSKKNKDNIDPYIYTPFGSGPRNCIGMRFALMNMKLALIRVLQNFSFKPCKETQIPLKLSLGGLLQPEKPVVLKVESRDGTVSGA

- CYP3A4 TDI KI (CYP3A4 [2]): 72.2 (measured data) μM
- Ki (P‐glycoprotein (P‐gp) [3]): 73.9 µM
- fu,plasma ([4]; fraction unbound in plasma, measured data): 0.181 (measured data)
- fraction unbound ([4]; human, plasma): 0.181
- Share of total clearance by oxidation via CYP3A4/5 [6]: 84%
- Share of total clearance by renal elimination [6]: 16%
- Ki (UGT1A1 [7]): 48.4 µM
- EC50 (CYP3A4 [9]; human): 17.7 µM
- CYP3A4 induction Emax (CYP3A4 [9]; measured data): 48.1 (measured data) fold
- pKa [11]: Neutral
- Log P ([11]; measured data): 1.55 (measured data)
- Predicted drop in hemoglobin level [13]: ~17.5%
- Ki (CYP3A4 [15]): 59.5 µM
Structure (SMILES): O=C(c1cc(Cc2n[nH]c(=O)c3ccccc23)ccc1F)N1CCN(C(=O)C2CC2)CC1 [Olaparib]
- Geometric mean AUC (95% CI) ([1]; adults OlympiAD (observed), ref OlympiAD (NCT02000622)): 41.2 (36.1‐47.0) h·µg/mL
- Geometric mean AUC (95% CI) [1, 16]: 40.7 (37.7–44.0) h·µg/mL
- Geometric mean Cmax (95% CI) [1, 16]: 7.12 (6.75–7.51) μg/mL
- Renal clearance ([5]; based on clinical data, ref NCT01894256): 1.48 (based on clinical data: NCT01894256) L/h
- Change in AUC and Cmax vs normal hepatic function ([5]; mild and moderate hepatic impairment): < 15%
- Increase in AUC vs normal renal function ([5]; mild renal impairment): 24%
- Increase in Cmax vs normal renal function ([5]; mild renal impairment): 15%
- Increase in AUC vs normal renal function ([5]; moderate renal impairment): 44%
- Increase in Cmax vs normal renal function ([5]; moderate renal impairment): 26%
- AUCt (range) [8, 17]: 56.2 (21.9–299) h·µg/mL
- Cmax (range) [8, 17]: 4.44 (3–15) µg/mL
- AUCss (range) [8, 18]: 63.8 (25.5–189) h·µg/mL
- Cmax (range) [8, 18]: 9.71 (4.8–24.9) µg/mL
- Cmax (range) ([8]; tablet 300 mg single dose, arithmetic mean (min–max)): 7.41 (2.6–19.1) µg/mL
- CLpo [10, 19]: 6.07 (estimated based on clinical data) L/h
- Peff,man [10, 19]: 0.000644 cm/s (estimated based on clinical data)
- CYP3A CLint ([10]; capsule model): 0.0412 (retrograde approach) µL/min/pmol of isoform
- CLpo ([10]; tablet model, estimated based on clinical data): 7.6 (estimated based on clinical data) L/h
- CYP3A CLint ([10]; tablet model): 0.057 (retrograde approach) µL/min/pmol of isoform
- IC50 (UGT1A1 [12]): 96.7 µM
- IC50 (P‐glycoprotein (P‐gp) [14]): 76 µM
